Laboratory results: US5101059A, “Amino acid protecting groups” (Research Corporation Technologies, Inc., priority 1989, dated 1992)

Legend:
Type in all cases: physicochemical
[1] = Stability of substituted Fmoc-aniline to catalytic hydrogenation; conditions: palladium on charcoal, hydrogen 1 atm, 20 hours
Protocol: 1. Deblocking of 2,7-Bistrimethyl-silyl)-9-fluorenylmethyl Carbanilate: To a solution of 0.2 g BTS-Fmoc-aniline in 15 mL of 100% ethanol and 15 mL of EtOAc was added 20 mg of 10% palladium on charcoal at 0° C. The heterogeneous mixture was stirred under a hydrogen atmosphere (1 atm) for 20 hours. The catalyst was filtered and rinsed with EtOAc (2×5 mL). The combined filtrate was washed with sat'd NH4 Cl (2×20 mL), water (20 mL), and dried over anhydrous MgSO4. After evaporating the solvent in vacuo, the residue (0.14 g) was recrystallized from 95% ethanol to afford 0.11 g (78.0%) of 2,7-bis(trimethylsilyl)-9-methylfluorene as white needles, m.p. 106.5°-108° C., identified by mixture melting point, IR, and NMR spectral comparison with an authentic sample obtained as described above.
2. Stability of 9-Trimethylsilyl-9-fluorenylmethyl Carbanilate Towards Catalytic Hydrogenation: To a mixture of 0.15 g of TMS-Fmoc-analine and 0.15 g of BTS-Fmoc-analine in 20 mL of ethyl acetate and 30 mL of 100% ethanol was added 30 mg of […] palladium on charcoal. The mixture was magnetically stirred at room temperature under a hydrogen atmosphere (1 atm) for 20 hours. The catalyst was removed by filtration and rinsed with EtOAc (2×5 mL). […] Recrystallization of the former from 95% ethanol gave 78.3 mg (74.1%) of the pure silane, m.p. 107°-108.5° C. […]

[2] = Stability of xanthenylmethyl and dihydroanthracenylmethyl derivatives in trifluoroacetic acid; conditions: TFA 40 eq., deuterated chloroform, room temperature, 3 days
Protocol: 3. Stability of Xanthenylmethyl p-Chlorocarbanilate in Trifluoroacetic Acid: To a solution of 35.61 mg of Xmoc-PCA in 0.2 mL of deuterated chloroform was added 0.3 mL (40 eq.) of trifluoroacetic acid. The mixture was transferred to an NMR tube and allowed to stand at room temperature. The reaction was monitored by NMR spectroscopy (Varian A-60A, 60 MHz) and TLC with an eluant consisting of Skelly B--ethyl acetate (4:1). No change was noted after 3 days.
4. Stability of 9-Xanthenylmethyl Phenylacetate in Trifluoroacetic Acid: To a solution of 21.4 mg of 9-XM phenylacetate in 0.2 mL of deuterated chloroform was added 0.2 mL (40 eq.) of trifluoroacetic acid. The mixture was transferred to an NMR tube and let stand at room temperature. The reaction was monitored by NMR (Varian A-60A, 60 MHz) spectroscopy and TLC analysis with an eluant consisting of Skelly B--ether (2:1). No change was noted after 3 days.
1. Stability of 9,10-Dihydro-9-anthracenylmethyl p-Chlorocarbanilate in Trifluoroacetic Acid: To a solution of 23.61 mg of DHAmoc-PCA in 0.2 mL of deuterated chloroform was added 0.2 mL (40 eq.) of trifluoroacetic acid. The mixture was transferred to an NMR tube and allowed to stand at room temperature. The reaction was monitored by NMR spectroscopy (Varian A-60A, 60 MHz) and TLC with an eluant consisting of Skelly B--EtOAc (3:1). No change was noted after 4 days.

[3] = Base deblocking and stability of 9-xanthenylmethyl and 9,10-dihydro-9-anthracenylmethyl derivatives; conditions: room temperature
Protocol: 1. Deblocking of Xmoc-PCA in 1,5,9-Triazabicyclo[4,4,0]dec-5-ene Solution: To a solution of 7.90 mg (0.0216 mmol) of Xmoc-PCA in 0.6 mL of pyridine was added 0.15 g (1.078 mmol 50 eq.) of 1,5,9-triazabicyclo[4,4,0]dec-5-ene (TBD). The mixture was stirred at room temperature and monitored by TLC with an eluant consisting of Skelly B--EtOAc (3:1). Complete deblocking had occurred after 25 minutes.
2. Base Deblocking of 9-Xanthenylmethyl Phenylacetate: a. In Piperdine Solution: To a solution of 13.39 mg of 9-XM-phenylacetate in 1.6 mL of DMF was added 0.4 mL (100 eq.) of piperidine. The mixture was stirred at room temperature. […] In DBU Solution: To a solution of 6.36 mg of 9-XM-phenylacetate in 0.9 mL of DMF was added 0.3 mL of 1,8-diazabicyclo[5,4,0]-undec-7-ene (DBU) (100 eq.). The mixture was stirred at room temperature. […] In TBD Solution: To a solution of 7.91 mg of 9-XM-phenylacetate in 0.3 mL of pyridine was added 100 mg (30 eq.) of 1,5,9-triazabicyclo[4,4,0]dec-5-ene. The mixture was stirred at room temperature.
1. General Procedure for Studying the Stabilities of DHAmoc-PCA, Xmoc-PCA, and DC-Xmoc-PCA in Piperidine Solution To a solution of urethane (0.0294 mmol) in 1.2 mL of DMF was added 0.3 mL (2.94 mmol, 100 eq.) of piperidine. The mixture was stirred at room temperature and monitored by TLC with an eluant consisting of Skelly B--EtOAc (3:1). Evidence for initiation of the deblocking required 2 minutes for DC-Xmoc-PCA, 3.5 hours for Xmoc-PCA, and 7 hours for DHAmoc-PCA.
2. General Procedure for Studying the Deblocking of Xmoc-PCA and DHAmoc-PCA in DBU Solution: To a solution of urethane (0.0324 mmol) in 0.5 mL of DMF was added 0.5 mL (3.24 mmol, 100 eq.) of 1,8-diazabicyclo[5,4,0]undec-7-ene. The mixture was stirred at room temperature and monitored by TLC with the eluant consisting of Skelly B--EtOAc (3:1). The time needed to complete the deblocking was 3.5 hours for Xmoc-PCA, and 6 hours for DHAmoc-PCA.

[4] = Stability of substituted Fmoc-PCA in acetic acid; conditions: glacial acetic acid 10 eq., CH2Cl2, room temperature, 48 hours
Protocol: 2. […] The mixture was stirred at room temperature for 48 hours. […] The mixture was washed with half sat'd NaHCO3 (2×10 mL) and water (10 mL). […] 161°-163° C., the IR and ^1 H NMR spectra of which matched that of an authentic sample.
3. Stability of 9-Trimethylsilyl-9-[…] p-Chlorocarbanilate in Acetic Acid: To a solution of 0.37 g of TMS-Fmoc-PCA in 10 mL of CH2 Cl2 was added 0.5 mL (10 eq.) of glacial acetic acid. The mixture was stirred at room temperature. […] The mixture was washed with half sat'd NaHCO3 (2×10 mL) and H2 O (10 mL). […] 124°-126° C., the ^1 H NMR and IR spectra of which matched that of an authentic sample.

[5] = Base deblocking of substituted urethanes (U-PCA) by various amines; conditions: dichloromethane, room temperature
Description: 1. General Procedure for Studying the Base Deblocking of the Urethanes Fmoc-PCA, BTS-Fmoc-PCA, DT-Fmoc-PCA, and TMS-Fmoc-PCA: A mixture of urethane (0.05 mmol) in a solution prepared from an equal volume of base (2.5 mmol, 50 eq.) and dichloromethane was stirred at room temperature. The course of the reaction was monitored by TLC with an eluant consisting of Skelly B--ether (3:1).

[6] = Solubility of TMS-Fmoc and dichloro-Xmoc derivatives versus Fmoc analogs; conditions: in CH2Cl2
Protocol: This latter property is particularly important when peptide synthesis is carried out in solution.

[7] = Stability of 9-xanthenylmethyl carbanilate towards catalytic hydrogenolysis; conditions: 5% Pd/C and palladium acetate, 40 psi hydrogen, 24 hours
Protocol: 5. Stability of 9-Xanthenylmethyl Carbanilate Towards Catalytic Hydrogenolysis: To a solution of 300 mg of Xmoc-aniline in 30 mL of EtOAc and 10 mL of 100% EtOH was added 30 mg of 5% palladium on charcoal and 30 mg of palladium acetate. The mixture was shaken under hydrogen at a pressure of 40 psi in a Parr apparatus for 24 hours. […] 178°-181° C., the ^1 H NMR and IR spectra of which matched that of an authentic sample.

[8] = Deblocking of R-Fmoc-aniline by fluoride ion; conditions: tetra-n-butylammonium chloride 3.0 eq., KF dihydrate 4.1 eq., acetonitrile, room temperature
Protocol: 3. General Procedure for Studying the Deblocking of Urethanes R-Fmoc-aniline (R=TMS, DMPS, DPMS, TIPS, DT-TMS) by Reaction with Fluoride Ion: To a solution of urethane (0.0513 mmol) in 0.7 mL of acetonitrile was added 45 mg (0.154 mmol, 3.0 eq.) of tetra-n-butyl-ammonium chloride and 20 mg (0.213 mmol, 4.1 eq.) of potassium fluoride dihydrate. The mixture was stirred at room temperature, the reaction being monitored by TLC with an eluant consisting of Skelly B--CH2 Cl2 (1:1).

[9] = Deblocking of R-Fmoc-aniline by trifluoroacetic acid; conditions: room temperature
Description: 1. General Procedure for Studying the stability of R-Fmoc-analine (R=TMS, DMPS, DPMS, DT-TMS, TIPS) in Trifluoroacetic Acid: To a solution of urethane (0.026 mmol) in […].) of trifluoroacetic acid. The mixture was stirred at room temperature and the course of the reaction was monitored by TLC with an eluant consisting of Skelly B--dichloromethane (1:1) to note the time needed for complete deblocking of the urethanes.

[10] = Base deblocking of R-Fmoc-aniline by various amines; conditions: room temperature
Protocol: 2. General Procedure for Studying the Base Deblocking of the Urethanes R-Fmoc-aniline (R=TMS, DMPS, DPMS, DT-TMS, TIPS): A solution of urethane (0.05 mmol) in a sample of redistilled base (5 mmol, 100 eq.) was allowed to stand at room temperature. The reaction was monitored periodically by TLC with an eluant consisting of Skelly B--CH2 Cl2 (1:1). No reaction occurred according to the TLC test for urethanes having R=TIPS in the case of any of the bases tested after 24 hours.

[11] = Base deblocking of 9-xanthenylmethoxycarbonyl-L-phenylalanine; conditions: room temperature
Protocol: A. Base Deblocking of 9-Xanthenylmethoxycarbonyl-L-phenylalanine: 1. In DBU Solution: To a solution of 13.08 mg of Xmoc-Phe-Oh in 0.5 mL of DMF was added 0.5 mL of 1,8-diazabicyclo[5,4,0]-undec-7-ene (DBU, 100 eq.). The mixture was stirred at room temperature. The reaction was monitored by TLC with an eluant consisting of CHCl3 --CH3 OH--CH3 CO2 H (9:1:0.1). Deblocking was complete after 36 hours. 2. In TBD Solution: To a solution of 7.25 mg of Xmoc-Phe-OH in 0.1 mL of pyridine and 0.1 mL of DMF was added 50 mg (20 eq.) of 1,5,9-triazabicyclo[4,4,0]dec-5-ene (TBD). The mixture was stirred at room temperature and monitored by TLC with an eluant consisting of CHCl3 --CH3 OH--CH3 CO2 H (9:1:0.1). Deblocking was complete after 4.5 hours.

SMILES: C[Si](C)(C)c1ccc2c(c1)C(COC(=O)Nc1ccccc1)c1cc([Si](C)(C)C)ccc1-2 [BTS-Fmoc-aniline, 2,7-Bis(trimethylsilyl)-9-fluorenylmethyl Carbanilate]
- product of catalytic hydrogenation (deblocking) [1]: 2,7-bis(trimethylsilyl)-9-methylfluorene

SMILES: O=C(Cc1ccccc1)OCC1c2ccccc2Oc2ccccc21 [9-XM-phenylacetate, 9-Xanthenylmethyl Phenylacetate]
- stability in trifluoroacetic acid (NMR, TLC) [2]: No change
- Time for Complete Deblocking ([3]; DBU 100 eq., DMF): ≤ 90 min
- Time for Complete Deblocking ([3]; TBD 30 eq., pyridine): ≤ 27 min
- stability in piperidine solution (TLC) ([3]; piperidine 100 eq., DMF, 2 days): no change

SMILES: C[Si](C)(C)C1(COC(=O)Nc2ccc(Cl)cc2)c2ccccc2-c2ccccc21 [TMS-Fmoc-PCA, 9-Trimethylsilyl-9-fluorenylmethyl p-Chlorocarbanilate]
- recovered urethane [4]: 97.5%
- stability in acetic acid (TLC) [4]: no change
- Time for Complete Deblocking ([5]; ethanolamine 50 eq.): 150 min
- Time for Complete Scavenging of Dibenzofulvene Analogs ([5]; morpholine 50 eq.): 16.5 hr
- Time for Complete Deblocking ([5]; morpholine 50 eq., significant aminodibenzofulvene type adduct formed): 780 min
- Time for Complete Scavenging of Dibenzofulvene Analogs ([5]; piperidine 50 eq.): 195 min
- Time for Complete Deblocking ([5]; piperidine 50 eq., significant aminodibenzofulvene type adduct formed): 129 min
- Time for Complete Deblocking ([5]; t-butylamine 50 eq.): > 2900 min
- solubility relative to that of the Fmoc analog [6]: 16 times
- soluble to the extent of (solubility) [6]: 53 g/100 mL

SMILES: O=C(Nc1ccccc1)OCC1c2ccccc2Oc2ccccc21 [Xmoc-aniline, 9-Xanthenylmethyl Carbanilate]
- recovered urethane [7]: 94.3%
- stability towards catalytic hydrogenolysis (TLC) [7]: remained intact

SMILES: C[Si](C)(C)C1(COC(=O)Nc2ccccc2)c2ccccc2-c2ccccc21 [TMS-Fmoc-aniline, 9-Trimethylsilyl-9-fluorenylmethyl Carbanilate]
- Time for Complete Deblocking by Fluoride Ion [8]: 5 min
- recovered urethane ([1]; room temperature): 93.3%
- Time for Complete Deblocking by Trifluoroacetic Acid [9]: 5 h
- Time for Complete Deblocking ([10]; morpholine 100 eq.): 180 min
- Time for Complete Scavenging of Dibenzofulvene ([10]; morpholine 100 eq.): 240 min
- Time for Complete Deblocking ([10]; piperidine 100 eq.): 100 min
- Time for Complete Scavenging of Dibenzofulvene ([10]; piperidine 100 eq.): 300 min
- Time for Complete Deblocking ([10]; t-butylamine 100 eq.): 720 min

SMILES: O=C(N[C@@H](Cc1ccccc1)C(=O)O)OCC1c2ccccc2Oc2ccccc21 [Xmoc-Phe-OH, 9-Xanthenylmethoxycarbonyl-L-phenylalanine]
- Time for Complete Deblocking ([11]; DBU 100 eq., DMF): 36 h
- Time for Complete Deblocking ([11]; TBD 20 eq., pyridine and DMF): 4.5 h
